Data reported in patent US12011452B2, “Compositions and methods for treatment of mitochondrial respiratory chain dysfunction and other mitochondrial disorders” (The Children's Hospital of Philadelphia, priority 2018, dated 2024).
Counter-ions that a name gives are not always drawn. Like-named read-outs stand apart in the source and are kept apart here.

Legend:
N2 = experiment: GSH levels in worms by HPLC-ECD after GSH depleting agent; format: in vivo, C. elegans; settings: treated for 24 hours
Experimental: FIG. 28. Effect of the GSH Depleting agent, Diethyl Maleate (DEM). Worms were treated with DEM for 24 hours.
GSH levels are an important parameter to evaluate the physiological effects of mitochondrial disease. In the present example, the development and optimization of an HPLC-ECD assay to sensitively quantify reduced (GSH) and oxidized (GSSG) glutathione levels in C. elegans is described. We have optimized each of the following: mobile phase buffer composition, homogenization conditions, deproteinizing conditions and reducing agents.

gas-1(fc21) worms = experiment: Mitochondrial physiology (TMRE, MitoSOX, MitoTracker Green) in gas-1(fc21) worms; format: in vivo, C. elegans; settings: 24 hour treatment
Experimental: Mitochondrial oxidant burden (MitoSOX Red), membrane potential (tetramethylrhodamine ethyl ester, TMRE), and mitochondrial content (MitoTracker Green FM, MTG) were performed in C. elegans at 20° C. using in vivo terminal pharyngeal bulb relative fluorescence microscopic quantitation. […] Simultaneously with the drug treatments, worms were treated with either 10 μM MitoSOX Red (matrix oxidant burden), 100 nM TMRE (mitochondrial membrane potential), or 2 μM MitoTracker Green FM (mitochondria content) for 24 h. The next day, worms were transferred with a pick onto 35 mm agar plates spread with OP50 E. coli without dye for 1 h to allow clearing of residual dye from the gut. Worms were then paralyzed in situ with 5 mg/ml levamisole. Photographs were taken in a darkened room at 160× magnification with a Cool Snap cf2 camera (Nikon, Melville, N.Y.). A CY3 fluorescence cube set (MZFLIII, Leica, Bannockburn, IL) was used for MitoSOX and TMRE. […] Fluorescence data for each strain were normalized to its same day control to account for day-to-day variation. […] The significance of the difference in the mean fluorescence intensity between strains under different experimental conditions was assessed by mixed-effect ANOVA, which analyzes potential batch effect due to samples being experimentally prepared, processed, and analyzed on different days by including a batch random effect in the model. […]

[1] = tested on: rotenone treated zebrafish; experiment: Rotenone model of brain death in zebrafish; settings: in vivo
Experimental: FIG. 36B) Wild-type (AB) fish are pre-exposed to drug treatments in their water from 5 days post fertilization (dpf) to 7 dpf. On 7 dpf, Zebrafish are co-treated with 150 nM of Rotenone (complex I inhibitor) and the same drug treatment(s). Zebrafish are then placed on the automated Zebrabox (Viewpoint) for 20 minutes of light at 60% followed by 20 minutes of darkness (eg, light at 0%) to induce a neurobehavioral startle response. The activity from the startle response is binned to 5 minute, and shown here as average activity at 581 minutes post-rotenone exposure. Activity score is normalized using percent of control (POC) to wild-type AB fish. […] Error bars convey standard error of mean. *, p<0.05; **, p<0.01; ***, p<0.001 by Student's T test. Glu, 10 mM glucose. […] NAC, 2.5 mM N-acetylcysteine. […] FIG. 36D+36E.

SURF1-del1−/− zebrafish = experiment: SURF1 knockout zebrafish pre-treatment before NaN3 exposure: brain death, startle response; format: in vivo
Source text: The phenotypes assessed can include without limitation, swimming activity or swimming fatigue, organ structural impairment or dysfunction gray brain alterations in mitochondrial physiology (=brain death) (FIG. 36C), heart rate, startle (tap) response (stimulus on plate), and touch response (stimulus on animal).

NUBPL^−/− C. elegans = experiment: Lifespan of NUBPL-/- C. elegans model of Complex I disease; format: in vivo; settings: Glu 10 mM, NAC 2.5 mM, DCA 25 mM, single biological replicate
Source text: We obtained a genetic knockout NUBPL (34.7% homology) worm strain TM3754 from the National BioResource Project, which has a 478 base pair deletion. […] The mutation in this strain is currently not balanced, so to balance it and obtain a homozygous mutant strain we have outcrossed it with FX30168 tm18[dpy-5(tmIs1236)]).
These animal models can be used to advantage for identifying new agents useful for the treatment of mitochondrial and other respiratory chain disorders. […] NUBPL is a nuclear gene-encoded complex I assembly factor, in which autosomal recessive (biallelic) mutations cause severe human mitochondrial disease manifesting with cerebellar ataxia and Leigh syndrome.

[2] = cited from earlier work
hsp-6p::GFP [3] = experiment: Mitochondrial stress (UPRmt) hsp-6p::GFP induction in dld-1 RNAi worms; format: in vivo, C. elegans; settings: dld-1 RNAi worms; conc.: Nicotinic Acid 1 mM; Riboflavin 10 uM; Thiamine 25 mM; L-Carnitine 100 uM; Folinic Acid 10 uM; Glucose 10 uM; DCA 25 mM; Cysteamine 100 um; NAC 2.5 Mm; AICAR 500 uM; Hydralazine 200 uM; Lithium Chloride 10 mM; Cyclohexamide 2 uM; Arginine 10 mM; Taurine 800 uM; Resveratrol 50 uM; Rapamycin 2.5 nM; Probucol 5 uM; Lipoic Acid 10 uM; Vitamin E 250 uM
Experimental: (§1) Brood size analysis—Worms were synchronized by picking ten to fifteen N2 gravid adult worms onto NGM plates containing 0.2 mM IPTG, ampicillin and tetracycline spread with DLD-1 (LLCI.3) or L4440 bacteria and allowed to lay eggs for 2-2.5 hours. A single L4 larvae from the egg lay was placed on a 4 mm dish containing NGM and corresponding RNAi clone and allowed to lay eggs for 24 hours before being transferred to a fresh 4 mm NGM plate. Worms were transferred to fresh plates for 5 days and progeny were counted from each plate. Western blot analysis—Approximately 500 young adult worms were briefly washed with S. basal media before resuspension in 250 uL of RIPA buffer (50 mM Tris HCl, pH 8.0, 150 mM NaCl, 1.0% NP-40, 0.5% sodium deoxycholate, 1.0 mM EDTA, 0.1% SDS) containing a 1/100 dilution of Protease inhibitor cocktail (Sigma). Worms were lysed using a mechanical hand homogenizer and pestle on ice and the resulting lysate was maintained at constant agitation for 30 minutes at 4° C. Lysate was subsequently centrifuged for 20 minutes at 16,000 rpm and the supernatant was removed. Protein concentration was determined using the Pierce BCA protein assay kit. 30 ug of whole cell lysate was utilized and blots were probed with anti-LAD monoclonal antibody at a 1:7500 dilution (abcam) to detect the DLD-1 protein. As a loading control blots were additionally probed with anti-Beta tubulin (source) at a […]. Chemotaxis Assay—Chemotaxis analysis was performed as has been previously described (Haroon, S. J. of Cell Reports (2018); pmid:29562168). In brief, approximately 30 worms were collected and washed with S. basal media. Worms were placed 5 cm away from a spot containing 2 uL of 10% isoamyl alcohol dissolved in 100% ethanol and 1 uL of 10% sodium azide. After one hour distance traveled by each worm was marked and analyzed via image J. Length Analysis—A synchronized population of worms grown on L4440 and LLCI.3 RNAi clones were monitored from the L4 stage of development till day 5 of adulthood. On the day of length analysis […] Quantification of Hsp6::GFP induction—A synchronized egg lay using 15-20 Hsp6::GFP gravid young adult worms on L4440 or LLCI.3 RNAi clones was performed to induce depletion of DLD-1 protein. Day 1 young adult worms were washed once in 4-5 mL of S. basal in a 50 mL conical tube and pelleted by centrifugation at 1300×g for 1 minute. Spent S. basal was removed and worms were resuspended in a final volume of 10 mL in preparation for biosorter analysis. An excitation wavelength of 488 nm and emission filter of 510 nm was utilized to measure induction of Hsp6::GFP induction in individual worms. Experiments were conducted with approximately 300 worms per sample with three biological replicates for each condition tested.
(§2) DLD depletion in C. elegans was achieved by feeding wild-type (N2 Bristol) worms E. coli expressing a dsRNA targeting DLD-1 messenger RNA. Brood size, survival, activity, growth (length), DLD-1 expression, and mitochondrial unfolded protein response (UPR^mt) were quantified in the resulting DLD-1^−/− animals. High throughput semi-automated analyses of animal growth (length) and mitochondrial stress response (UPR^mt) were also measured in day 1 adult worm populations using the COPAS Biosorter (Union Biometrica).
(§3) Therapeutic impact on DLD-1^−/− C. elegans UPR^mt induction and growth (length), as well as DLDH−/− zebrafish survival, liver morphology, and swimming behavior were tested for 5 therapies, including a PDH activator (dichloroacetate, DCA), PDH cofactors (thiamine, riboflavin, lipoic acid), and a lipid lowering drug that functions as a signaling modifier to inhibit mTORCI and activate AMPK and PPAR (probucol).

gas-1(fc21) C. elegans = experiment: Lifespan of gas-1(fc21) Complex I NDUFS2 mutant worms; format: in vivo; settings: administered at development (L1); previous studies in applicant's lab
hsp-6p::GFP [4] = experiment: UPRmt in K09A9.5 (gas-1) knockdown hsp-6p::gfp reporter worms; format: in vivo, C. elegans; settings: 10 mM Glu, 2.5 mM NAC, 1 mM Nicotinic acid
Experimental: UPRmt in C. elegans is assessed using a GFP reporter for hsp-6.

[5] = cited from earlier work; remark: listed apart in the source
[6] = tested on: DLD-1 deficient (did-1 RNAi) C. elegans; experiment: Animal size (length) of DLD-1 deficient (dld-1 RNAi) worms, COPAS Biosorter; format: in vivo; settings: dld-1 RNAi worms; conc.: Nicotinic Acid 1 mM; Riboflavin 10 uM; Thiamine 25 mM; L-Carnitine 100 uM; Folinic Acid 10 uM; Glucose 10 uM; DCA 25 mM; Cysteamine 100 um; NAC 2.5 Mm; AICAR 500 uM; Hydralazine 200 uM; Lithium Chloride 10 mM; Cyclohexamide 2 uM; Arginine 10 mM; Taurine 800 uM; Resveratrol 50 uM; Rapamycin 2.5 nM; Probucol 5 uM; Lipoic Acid 10 uM; Vitamin E 250 uM
Experimental: RNAi feeding—DLD-1 RNAi clone (LLC1.3) was obtained from the Ahringer RNAi collection and was sequence confirmed prior to use. The vector L4440 was utilized as a control.
as §1, §2, §3

[7] = pre-treated from 5 dpf, 45 μM NaN3 from 6 dpf, assessed 7 dpf

Compound | GSH levels (N2) | effect on reduced mitochondrial membrane potential (gas-1(fc21) worms) | effect on rotenone treated (stressor) brains of zebrafish [1] | effect on sodium azide treated (stressor) brains of surf1 KO zebrafish (SURF1-del1−/− zebrafish; FIG. 36D) | decompensation from acute low-dose CIV inhibition (SURF1-del1−/− zebrafish; SURF1−/− animals) | brain death from NaN3 exposure (SURF1-del1−/− zebrafish; [7]) | neuromuscular dysfunction (startle response) from NaN3 exposure (SURF1-del1−/− zebrafish; [7]) | median lifespan of NUBPL−/− worms (NUBPL^−/− C. elegans) | median lifespan of NUBPL−/− worms (NUBPL^−/− C. elegans; listed as N-acetylcysteine) | solubility in chloroform and ether [2] | solubility in water and alcohol [2] | HSP-6P::GFP (hsp-6p::GFP [3]) | rescue of short lifespan of gas-1(fc21) to wild type N2 levels by individual compounds (gas-1(fc21) C. elegans) | UPRmt stress response (hsp-6p::gfp fluorescence) (hsp-6p::GFP [4]) | half-life ([5]; adults) [h] | metabolism ([5]; in vivo) | urine excretion ([5]; in vivo) | half-life ([5]; neonates) [h] | Size [6]
CCOC(=O)/C=C\C(=O)OCC [DEM, Diethyl Maleate] | dose-dependently reduced | – | – | – | – | – | – | – | – | – | – | – | – | – | – | – | – | – | –
CC(=O)N[C@@H](CS)C(=O)O [NAC, N-acetylcysteine] | – | significantly increases | Protective effects | protective effects | preventing | prevented | prevented | significantly rescued | improve | practically insoluble | soluble | No Effect | partially or fully rescue | significantly reduce | 5.6 | extensively liver metabolized | 22-30% | 11 | No Effect
